According to EP0074229A1, “Triazole gastric anti-secretory agents” (PFIZER INC., priority 1981, dated 1983):

Assays:
gastric acid secretion = assay: gastric antisecretory activity in pentagastrin-stimulated Heidenhain pouch dogs; format: in vivo; details: conscious Heidenhain pouch dogs, pentagastrin infusion, drug given intravenously; for inhibition in vivo at up to 10 mg/kg: Canis lupus familiaris, iv, doses of 10 mg/kg or less, lowest acid output after drug vs mean output before drug; for inhibition of acid: dosage of 1 mg/kg
From the text: The activity of the compounds of the present invention as antisecretory agents and histamine-H2 antagonists may be determined by standard pharmacological tests, including for example (1) measuring their ability to antagonize the actions of histamine which are not blocked by an antihistamine such as mepyramine and (2) measuring their ability to inhibit gastric acid secretion in the stomachs of Heidenhain pouch dogs that had previously been treated with pentagastrin in order to stimulate the secretion of gastric acid.
The gastric antisecretory activity of compounds of the present invention was determined in overnight fasted, conscious Heidenhain pouch dogs. Pentagastrin (Peptavlon-Ayerst) was used to stimulate acid output by continuous infusion into a superficial leg vein at doses earlier determined to stimulate near maximal acid output from the gastric pouch. Gastric juice was collected at 30 minute intervals following the start of a pentagastrin infusion and measured to the nearest 0.1 ml. Ten collections were taken for each dog during an experiment. Acid concentration was determined by titrating 1.0 ml of gastric juice to pH 7.4 with 0.1N sodium hydroxide using an Autoburette and a glass electrode pH meter (Radiometer).
[…] Gastric acid . antisecxetory effects were calculated by comparing the lowest acid output after drug administration with the mean acid output immediately before drug.

H2-receptor = molecular target: T1, H2-receptor (Cavia porcellus, UniProt P47747); assay: histamine-H2 antagonist activity in isolated guinea pig right atria (histamine dose-response, dose-ratios, pA2); format: cell-based, Guinea pigs; details: antagonism of histamine-stimulated atrial rate, Krebs-Henseleit buffer pH 7.4, 32°
T1 construct: from tissue; host or cells: isolated guinea pig right atria
T1 sequence (P47747 whole entry): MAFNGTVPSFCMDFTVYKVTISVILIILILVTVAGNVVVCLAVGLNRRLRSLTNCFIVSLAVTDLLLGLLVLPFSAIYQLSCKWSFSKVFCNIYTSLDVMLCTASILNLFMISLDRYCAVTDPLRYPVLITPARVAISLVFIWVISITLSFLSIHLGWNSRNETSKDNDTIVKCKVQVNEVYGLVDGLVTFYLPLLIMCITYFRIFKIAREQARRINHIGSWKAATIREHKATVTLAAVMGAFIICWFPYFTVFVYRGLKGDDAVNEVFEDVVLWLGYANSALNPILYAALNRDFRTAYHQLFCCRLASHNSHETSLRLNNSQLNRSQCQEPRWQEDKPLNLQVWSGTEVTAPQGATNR
Protocol: The histamine-H2 antagonist activity of compounds of the present invention was determined by the following procedure: • Guinea pigs are killed rapidly with a blow to the head, the heart removed and the right atria dissected free. […] Individual atrial contractions are followed with a force-displacement transducer connected to a cardiotachometer and Grass polygraph recorder. After obtaining a dose-response curve to histamine, the bath containing each atrium is flushed several times with fresh buffer and the atria re-equilibrated to basal rates. Following the return to basal rate, test compounds are added at selected final concentrations and the histamine dose-response curve is again determined in the presence of antagonist. Results are-expressed as dose-ratios, the ratio of histamine concentrations required to produce one-half of maximal stimulation in the presence and absence of antagonist, and the apparent dissociation constant of the H2-receptor antagonist pA2 is determined.

Structure (SMILES) | inhibition in vivo at up to 10 mg/kg (gastric acid secretion) [%] | Kb (H2-receptor) [nM] | inhibition of acid (gastric acid secretion)
CNc1cc(-c2nc(C)n[nH]2)ccn1 [Example 2, 3'-Methyl-5'-(2-methylamino-4-pyridyl)-1',2',4'-triazole] | > 50 |  | 
CCNc1cc(-c2nc(C)n[nH]2)ccn1 [Example 3, 3'-Methyl-5'-(2-ethylamino-4-pyridyl)-1',2',4'-triazole] | > 50 | ≤ 1000 | 
CCNc1cc(-c2nc(CC)n[nH]2)ccn1 [Example 6, 3'-Ethyl-5'-(2-ethylamino-4-pyridyl)-1',2',4'-triazole hemi-hydrate] |  | ≤ 1000 | 
CCNc1cc(-c2nc(CO)n[nH]2)ccn1 [Example 8, 3'-Hydroxymethyl-5'-(2-ethylamino-4-pyridyl)-l',2',4'-triazole] | > 50 |  | 
CCNc1cc(-c2nc(CCNC(=O)C=Cc3cnc(C)s3)n[nH]2)ccn1 [Example 12, N-[3-(2-methyl-5-thiazolyl)acryloyl]-2-[3'-(5'-(2-ethylamino-4-pyridyl)-1',2',4'-triazolyl)]ethylamine] | > 50 | ≤ 1000 | greater than 50%
CCNc1cc(-c2nc(CCNC(=O)COc3ccccc3)n[nH]2)ccn1 [Example 17, N-Phenoxyacetyl-2-(3'-(5'-(2-ethylamino-4-pyridyl)-1',2',4'-triazolyl))'ethylamine hemihydrate] | > 50 |  | 
CCNc1cc(-c2n[nH]c(CCNC(=O)CCc3ccccc3)n2)ccn1 [Example 20, N-(3-Phenylpropionyl)-2-(3'-(5'-(2-ethylamino-4-pyridyl)-1',2',4'-triazolyl))ethylamine] | > 50 |  | 
CCNc1cc(-c2n[nH]c(CCNC(=O)COc3cccnc3)n2)ccn1 [Example 21, N-(3-Pyridyloxyacetyl)-2-(3'-(5'-(2-ethylamino-4-pyridyl)-1',2',4'-triazolyl))ethylamine bishydrate] | > 50 |  | 
CCNc1cc(-c2n[nH]c(CCNC(=O)c3ccc(O)nc3)n2)ccn1 [Example 24, N-(6-Hydroxynicotinoyl)-2-(3'-(5'-(2-ethylamino-4-pyridyl)-1',2',4'-triazolyl))ethylamine monohydrate] | > 50 |  | 
CCNc1cc(-c2n[nH]c(CCNC(=O)c3cccc(OC)c3)n2)ccn1 [Example 26, N-(3-Methoxybenzoyl)-2-(3'-(5'-(2-ethylamino-4-pyridyl)-1',2',4'-triazolyl))ethylamine] | > 50 |  | 
CCNc1cc(C(=O)NCCc2nc(-c3ccnc(NCC)c3)n[nH]2)ccn1 [Example 27, N-(2-Ethylaminoisonicotinoyl)-2-(3'-(5'-(2-ethylamino-4-pyridyl)-1',2',4'-triazolyl))ethylamine] | > 50 |  | 
CCNc1cc(-c2n[nH]c(CCNC(=O)c3ccc(CN(C)C)o3)n2)ccn1 [Example 28] |  | ≤ 1000 | 
CCNc1cc(-c2n[nH]c(CCNC(=O)c3csc(N=C(N)N)n3)n2)ccn1 [Example 29] |  | ≤ 1000 | 
CCNc1cc(-c2n[nH]c(CCNC(=O)CCc3cccnc3)n2)ccn1 [Example 31, N-(3-Pyridylpropionoyl)-2-(3'-(5'-(2-ethylamino-4-pyridyl)-1',2',4'-triazolyl))ethylamine] | > 50 | ≤ 1000 | 
CCNc1cc(-c2n[nH]c(CCNC(=O)c3cccnc3)n2)ccn1 [Example 34, N-Nicotinoyl-2-(3'-(5'-(2-ethylamino-4-pyridyl)-1',2',4'-triazolyl))ethylamine] |  | ≤ 1000 | 
CCNc1cc(-c2n[nH]c(CCNC(=O)c3ccncc3)n2)ccn1 [Example 35, N-(Isonicotinoyl)-2-(3'-(5'-(2-ethylamino-4-pyridyl)-1',2',4'-triazolyl))ethylamine] | > 50 |  | 
CCNc1cc(-c2n[nH]c(CCNC(N)=O)n2)ccn1 [Example 36, N-(2-(3'-(5'-(2-Ethylamino-4-pyridyl)-1',2',4'-triazolyl))-ethyl)urea hydrate] | > 50 |  | 
CCNc1cc(-c2n[nH]c(CCNC(=NC#N)NC)n2)ccn1 [Example 39, N-Cyano-N'-(2-(3'-(5'-(2-ethylamino-4-pyridyl)-1',2',4'-triazolyl))ethyl)-N"-methylguanidine] |  | ≤ 1000 | 
CCNc1cc(-c2n[nH]c(CCNC(=S)NC)n2)ccn1 [Example 41, N'-(2-(3'-(5'-(2-Ethylamino-4-pyridyl)-1',2',4'-triazolyl))-ethyl)-N'-methylthiourea] |  | ≤ 1000 | greater than 50%
